Experimental data from PubChem BioAssay AID1919001 (Molecular Pharmacology Branch, DTP, NCI, 2023).

System: 699152-130-R-J1-PDC complex spheroid growth
Experiment: Anticancer human tumor 699152-130-R-J1-PDC patient-derived pancreatic carcinoma cell line growth inhibition [AhR]
Details: for IC50: curve of first compound; for viability, T/C: stronger effect = lower value
Method in brief: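 Complex tumor spheroids co-cultured with HUVEC and human MSC stroma; AhR antagonists tested in combination with standard-of-care and investigational agents. Top concentration at or near clinical Cmax (else 10 microM), half-log dilutions; growth expressed as percent test/control.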
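Further: compound exposure lasted 7 days after spheroids had grown for 3 days.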

IC50 (second compound 0.1 µM): 0.0154 µM | IC50 (second compound 0.316 µM): 0.0155 µM | IC50 (second compound 1 µM): 0.0154 µM | IC50 (second compound 3.16 µM): 0.0151 µM | IC50 (second compound 10 µM): 0.0171 µM
SMILES: CC(C)CC(NC(=O)C(Cc1ccccc1)NC(=O)c1cnccn1)B(O)O (stereo not given) + Cc1ccccc1N=Nc1ccc(NC(=O)c2ccnn2C)c(C)c1
viability, T/C (second compound 0.1 µM, first compound 0.000949 µM): 86% | viability, T/C (second compound 0.1 µM, first compound 0.003 µM): 93% | viability, T/C (second compound 0.1 µM, first compound 0.00949 µM): 85.9% | viability, T/C (second compound 0.1 µM, first compound 0.03 µM): 1.03% | viability, T/C (second compound 0.1 µM, first compound 0.0949 µM): 0.47% | viability, T/C (second compound 0.1 µM, first compound 0.3 µM): 0.58% | viability, T/C (second compound 0.316 µM, first compound 0.000949 µM): 86% | viability, T/C (second compound 0.316 µM, first compound 0.003 µM): 105% | viability, T/C (second compound 0.316 µM, first compound 0.00949 µM): 86.9% | viability, T/C (second compound 0.316 µM, first compound 0.03 µM): 0.65% | viability, T/C (second compound 0.316 µM, first compound 0.0949 µM): 0.35% | viability, T/C (second compound 0.316 µM, first compound 0.3 µM): 0.4% | viability, T/C (second compound 1 µM, first compound 0.000949 µM): 97.9% | viability, T/C (second compound 1 µM, first compound 0.003 µM): 96.8% | viability, T/C (second compound 1 µM, first compound 0.00949 µM): 85.3% | viability, T/C (second compound 1 µM, first compound 0.03 µM): 0.79% | viability, T/C (second compound 1 µM, first compound 0.0949 µM): 0.52% | viability, T/C (second compound 1 µM, first compound 0.3 µM): 0.56% | viability, T/C (second compound 3.16 µM, first compound 0.000949 µM): 86.4% | viability, T/C (second compound 3.16 µM, first compound 0.003 µM): 90.7% | viability, T/C (second compound 3.16 µM, first compound 0.00949 µM): 82.9% | viability, T/C (second compound 3.16 µM, first compound 0.03 µM): 1.35% | viability, T/C (second compound 3.16 µM, first compound 0.0949 µM): 0.62% | viability, T/C (second compound 3.16 µM, first compound 0.3 µM): 0.61% | viability, T/C (second compound 10 µM, first compound 0.000949 µM): 120% | viability, T/C (second compound 10 µM, first compound 0.003 µM): 116% | viability, T/C (second compound 10 µM, first compound 0.00949 µM): 98.9% | viability, T/C (second compound 10 µM, first compound 0.03 µM): 2.93% | viability, T/C (second compound 10 µM, first compound 0.0949 µM): 0.98% | viability, T/C (second compound 10 µM, first compound 0.3 µM): 0.8%
